Results as given in US11464770B2, “Anticancer pharmaceutical composition” (NATIONAL CANCER CENTER, priority 2016, dated 2022).
Read-outs that look alike come from different tables or passages of the source.

Experiments:
neuroblastoma cell lines = test: Cell based assay, cell viability (CellTiter-Glo), neuroblastoma cell lines; settings: Homo sapiens; SH-SY5Y cell line
Method: (§1) Commercially available bladder cancer, prostate cancer, lung cancer, breast cancer, blood cancer, pancreatic cancer, colorectal cancer, brain cancer, neuroblastoma, melanoma, liver cancer, cervical carcinoma, ovarian cancer, renal cancer, and papilloma cell lines were each treated with trypsin-EDTA and cultured, followed by being seeded in each well of a 96 well plate. After 24 hours of treatment at constant temperature, the respective cells were treated with the candidate compound so that a final concentration became 0 to 2 μM. The treated cells were additionally cultured for 72 hours, and cell viability was measured by using an ATP detection method (CellTiter-Glo® Luminescent Cell Viability Assay, Promega).

melanoma cell lines = test: Cell based assay, cell viability (CellTiter-Glo), melanoma cell lines; settings: Homo sapiens; LOX-IMVI cell line
Method: as §1

[1] = test system: colorectal cancer cell lines (e.g. DLD-1, HCT 116, SW620, HCT-15, HCT-8, RKO); test: Cell based assay, cell viability (CellTiter-Glo), colorectal cancer cell lines
Method: as §1

[2] = Homo sapiens, DLD-1, 72 hours treatment, read-out: IC50, colorectal cancer cell line DLD-1
[3] = Homo sapiens, HCT 116, 72 hours treatment, read-out: IC50, colorectal cancer cell line HCT 116
[4] = Homo sapiens, HCT-8, 72 hours treatment, read-out: IC50, colorectal cancer cell line HCT-8
[5] = Homo sapiens, HCT-15, 72 hours treatment, read-out: IC50, colorectal cancer cell line HCT-15
[6] = Homo sapiens, HT-29, 72 hours treatment, read-out: IC50, colorectal cancer cell line HT-29
[7] = Homo sapiens, LoVo, 72 hours treatment, read-out: IC50, colorectal cancer cell line LoVo
[8] = Homo sapiens, SW480, 72 hours treatment, read-out: IC50, colorectal cancer cell line SW480
[9] = Homo sapiens, SW-620, SW620, 72 hours treatment, read-out: IC50, colorectal cancer cell line SW620
[10] = RKO, 72 hours treatment, read-out: IC50, colorectal cancer cell line RKO
[11] = Homo sapiens, DLD-1 cells, 72 hours treatment, read-out: IC50, colorectal cancer cell line DLD-1
[12] = Homo sapiens, HCT 116 cells, 72 hours treatment, read-out: IC50, colorectal cancer cell line HCT 116
[13] = Homo sapiens, HCT-8 cells, 72 hours treatment, read-out: IC50, colorectal cancer cell line HCT-8
[14] = Homo sapiens, HCT-15 cells, 72 hours treatment, read-out: IC50, colorectal cancer cell line HCT-15
[15] = Homo sapiens, HT-29 cells, 72 hours treatment, read-out: IC50, colorectal cancer cell line HT-29
[16] = Homo sapiens, LoVo cells, 72 hours treatment, read-out: IC50, colorectal cancer cell line LoVo
[17] = Homo sapiens, RKO cells, 72 hours treatment, read-out: IC50, colorectal cancer cell line RKO
[18] = Homo sapiens, SW480 cells, 72 hours treatment, read-out: IC50, colorectal cancer cell line SW480
[19] = Homo sapiens, SW-620, SW620 cells, 72 hours treatment, read-out: IC50, colorectal cancer cell line SW620

Compound	IC50 (neuroblastoma cell lines) [nM]	IC50 (melanoma cell lines) [nM]	IC50 [1, 2] [nM]	IC50 [1, 3] [nM]	IC50 [1, 4] [nM]	IC50 [1, 5] [nM]	IC50 [1, 6] [nM]	IC50 [1, 7] [nM]	IC50 [1, 8] [nM]	IC50 [1, 9] [nM]	IC50 [1, 10] [nM]	IC50 [1, 11] [nM]	IC50 [1, 12] [nM]	IC50 [1, 13] [nM]	IC50 [1, 14] [nM]	IC50 [1, 15] [nM]	IC50 [1, 16] [nM]	IC50 [1, 17] [nM]	IC50 [1, 18] [nM]	IC50 [1, 19] [nM]
CC(=O)c1c([S+](C)[O-])n(C(C)=O)c2c(Br)ccc(Cl)c2c1=O (stereo not drawn) [Compound 19, 1,1′-(8-bromo-5-chloro-2-(methylsulfinyl)-4-oxoquinoline-1,3(4H)-diyl)bis(ethan-1-one)]	> 2000	> 2000	> 2000	> 2000	> 2000	> 2000	> 10000	> 2000	> 2000	> 2000	> 2000									
CC(=O)c1c([S+]([O-])Cc2ccccc2)nc2c(Br)ccc(Cl)c2c1O (stereo not drawn) [Compound 53, 1-(2-(benzylsulfinyl)-8-bromo-5-chloro-4-hydroxyquinolin-3-yl)ethan-1-one]	> 2000	> 2000	> 2000	> 2000	> 2000	> 2000	> 10000	> 2000	> 2000	> 2000	> 2000									
CC(=O)c1c([S+]([O-])Cc2cc(C)on2)[nH]c2c(F)ccc(F)c2c1=O (stereo not drawn) [Compound 82, 3-acetyl-5,8-difluoro-2-(((5-methylisoxazol-3-yl)methyl)sulfinyl)quinolin-4(1H)-one]	1550	> 2000										> 2000	> 2000	> 2000	> 2000	> 10000	> 2000	> 2000	> 2000	> 2000
COC(=O)c1ccc(C[S+]([O-])c2[nH]c3c(Cl)ccc(Cl)c3c(=O)c2C(C)=O)cc1 (stereo not drawn) [Compound 91, methyl 4-(((3-acetyl-5,8-dichloro-4-oxo-1,4-dihydroquinolin-2-yl)sulfinyl)methyl)benzoate]	1220	> 2000										1820	> 2000	> 2000	> 2000	> 10000	> 2000	1410	> 2000	> 2000
CCS(=O)(=O)n1c([S+](C)[O-])c(C(C)=O)c(=O)c2c(Cl)ccc(Br)c21 (stereo not drawn) [Compound 39, 3-acetyl-8-bromo-5-chloro-1-(ethylsulfonyl)-2-(methylsulfinyl)quinolin-4(1H)-one]	> 2000	> 2000	> 2000	> 2000	> 2000	> 2000	> 10000	> 2000	> 2000	> 2000	> 2000									
Cc1cc(C[S+]([O-])c2[nH]c3c(Cl)ccc(Cl)c3c(=O)c2C(=O)c2ccccc2)no1 (stereo not drawn) [Compound 88, 3-benzoyl-5,8-dichloro-2-(((5-methylisoxazol-3-yl)methyl)sulfinyl)quinolin-4(1H)-one]	1510	> 2000										> 2000	> 2000	> 2000	> 2000	> 10000	> 2000	> 2000	> 2000	> 2000
CC(=O)c1c([S+](C)[O-])n(S(=O)(=O)C(F)(F)F)c2c(Br)ccc(Cl)c2c1=O (stereo not drawn) [Compound 36, 3-acetyl-8-bromo-5-chloro-2-(methylsulfinyl)-1-((trifluoromethyl)sulfonyl)quinolin-4(1H)-one]	> 2000	> 2000	> 2000	> 2000	> 2000	> 2000	> 10000	> 2000	> 2000	> 2000	> 2000									
CSc1c(C(C)=O)c(=O)c2c(Cl)ccc(Br)c2n1S(=O)(=O)c1ccc(Cl)cc1 [Compound 37, 3-acetyl-8-bromo-5-chloro-1-((4-chlorophenyl)sulfonyl)-2-(methylthio)quinolin-4(1H)-one]	> 2000	> 2000	> 2000	> 2000	> 2000	> 2000	> 10000	> 2000	> 2000	> 2000	> 2000									

Other lines, results leading:

IC50 (neuroblastoma cell lines) [nM]	IC50 (melanoma cell lines) [nM]	IC50 [1, 2] [nM]	IC50 [1, 3] [nM]	IC50 [1, 4] [nM]	IC50 [1, 5] [nM]	IC50 [1, 6] [nM]	IC50 [1, 7] [nM]	IC50 [1, 8] [nM]	IC50 [1, 9] [nM]	IC50 [1, 10] [nM]	IC50 [1, 11] [nM]	IC50 [1, 12] [nM]	IC50 [1, 13] [nM]	IC50 [1, 14] [nM]	IC50 [1, 15] [nM]	IC50 [1, 16] [nM]	IC50 [1, 17] [nM]	IC50 [1, 18] [nM]	IC50 [1, 19] [nM]	Compound
> 2000	> 2000	1600	> 2000	> 2000	> 2000	> 10000	> 2000	> 2000	> 2000	> 2000										CC(=O)c1c([S+]([O-])Cc2cccc(I)c2)[nH]c2c(Br)ccc(Cl)c2c1=O (stereo not drawn) [Compound 48, 3-acetyl-8-bromo-5-chloro-2-((3-iodobenzyl)sulfinyl)quinolin-4(1H)-one]
> 2000	> 2000	> 2000	> 2000	> 2000	> 2000	> 10000	> 2000	> 2000	> 2000	> 2000										CC(=O)c1c(SCc2ccccc2)[nH]c2c(Br)ccc(Cl)c2c1=O [Compound 3, 3-acetyl-2-(benzylthio)-8-bromo-5-chloroquinolin-4(1H)-one]
520	860										1160	1220	1240	1330	> 10000	1940	1190	1600	1220	CC(=O)c1c([S+]([O-])Cc2ccc(C(F)(F)F)nc2C)[nH]c2c(Br)ccc(Cl)c2c1=O (stereo not drawn) [Compound 102, 3-acetyl-8-bromo-5-chloro-2-(((2-methyl-6-(trifluoromethyl)pyridin-3-yl)methyl)sulfinyl)quinolin-4(1H)-one]
> 2000	> 2000	> 2000	> 2000	> 2000	> 2000	> 10000	> 2000	> 2000	> 2000	> 2000										CC(=O)c1c(SC(C)C)[nH]c2c(Br)ccc(Cl)c2c1=O [Compound 24, 3-acetyl-8-bromo-5-chloro-2-(isopropylthio)quinolin-4(1H)-one]
> 2000	> 2000	> 2000	> 2000	> 2000	> 2000	> 10000	> 2000	> 2000	> 2000	> 2000										CC(=O)c1c(S(=O)(=O)Cc2ccccc2)nc2c(Br)ccc(Cl)c2c1O [Compound 54, 1-(2-(benzylsulfonyl)-8-bromo-5-chloro-4-hydroxyquinolin-3-yl)ethan-1-one]
> 2000	880	940	960	1300	1060	> 10000	1900	1220	1090	1090										CC(=O)c1c([S+]([O-])Cc2cccc(C#N)c2)[nH]c2c(Br)ccc(Cl)c2c1=O (stereo not drawn) [Compound 28, 3-(((3-acetyl-8-bromo-5-chloro-4-oxo-1,4-dihydroquinolin-2-yl)sulfinyl)methyl)benzonitrile]
> 2000	> 2000	> 2000	> 2000	> 2000	> 2000	> 10000	> 2000	> 2000	> 2000	> 2000										CC(=O)c1c(SCc2cccc(I)c2)[nH]c2c(Br)ccc(Cl)c2c1=O [Compound 47, 3-acetyl-8-bromo-5-chloro-2-((3-iodobenzyl)thio)quinolin-4(1H)-one]
> 2000	> 2000	> 2000	> 2000	> 2000	> 2000	> 10000	> 2000	> 2000	> 2000	> 2000										CC(=O)c1c(SCc2ccccc2)n(C(=O)c2ccc(Br)cc2)c2c(Br)ccc(Cl)c2c1=O [Compound 23, 3-acetyl-2-(benzylthio)-8-bromo-1-(4-bromobenzoyl)-5-chloroquinolin-4(1H)-one]
> 2000	> 2000										> 2000	> 2000	> 2000	> 2000	> 10000	> 2000	> 2000	> 2000	> 2000	CC(=O)c1c([S+]([O-])Cc2cnc3[nH]ccc3c2)[nH]c2c(Br)ccc(Cl)c2c1=O (stereo not drawn) [Compound 107, 2-(((1H-pyrrolo[2,3-b]pyridin-5-yl)methyl)sulfinyl)-3-acetyl-8-bromo-5-chloroquinolin-4(1H)-one]
> 2000	1160	920	1450	1700	1240	> 10000	> 2000	1800	1680	1290										CC(=O)c1c([S+]([O-])Cc2cccc(S(F)(F)(F)(F)F)c2)[nH]c2c(Br)ccc(Cl)c2c1=O (stereo not drawn) [Compound 77, 3-acetyl-8-bromo-5-chloro-2-((3-(pentafluoro--sulfanyl)benzyl)sulfinyl)quinolin-4(1H)-one]
